From patent US7858630B2, “D3 and 5-HT2A receptor modulators” (Hoffmann-La Roche Inc., priority 2008, dated 2010) come the findings set out here.

For test [1], the target named is T1, human dopamine D3 receptor (Homo sapiens, UniProt P35462).
T1 construct: expressed in transfected cells; host or cells: HEK-293 EBNA cells, transient transfection; membrane preparation
The test can be described thus: Radioligand binding ([3H]-spiperone) to membranes of HEK-293 EBNA cells expressing human D3 receptor. As to conditions: human D3, 0.5 nM [3H]-spiperone, HEK-293 EBNA membranes, 1 h at RT. Summed up: (§1)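 Membranes from HEK-293 EBNA cells transiently transfected with the receptor were incubated 1 h at RT with ten test concentrations (10 μM–0.1 nM) and ~0.7 nM [3H]-spiperone (D2), 0.5 nM [3H]-spiperone (D3) or 1.1 nM [3H]-ketanserin (5-HT2A). Nonspecific binding was set with 10 μM spiperone, bound radioactivity was read by filtration and scintillation, and Ki was taken from IC50 via Cheng-Prusoff.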

The target of test [2] is T2, human serotonin 5-HT2A receptor (Homo sapiens, UniProt P28223).
T2 construct: expressed in transfected cells; host or cells: HEK-293 EBNA cells, transient transfection; membrane preparation
T2 sequence (P28223 whole entry): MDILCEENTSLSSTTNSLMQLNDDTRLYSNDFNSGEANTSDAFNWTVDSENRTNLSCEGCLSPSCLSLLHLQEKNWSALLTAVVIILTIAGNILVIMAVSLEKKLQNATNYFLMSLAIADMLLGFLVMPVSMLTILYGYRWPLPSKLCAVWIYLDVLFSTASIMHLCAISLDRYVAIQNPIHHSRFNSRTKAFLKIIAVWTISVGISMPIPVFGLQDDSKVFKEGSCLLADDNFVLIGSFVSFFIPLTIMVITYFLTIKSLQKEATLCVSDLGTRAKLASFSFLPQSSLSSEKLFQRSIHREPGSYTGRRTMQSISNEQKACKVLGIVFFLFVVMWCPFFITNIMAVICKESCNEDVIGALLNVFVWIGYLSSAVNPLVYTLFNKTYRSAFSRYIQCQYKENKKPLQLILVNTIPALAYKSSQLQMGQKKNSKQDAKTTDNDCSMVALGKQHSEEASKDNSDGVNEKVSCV
The experiment in a line: Radioligand binding ([3H]-ketanserin) to membranes of HEK-293 EBNA cells expressing human 5-HT2A receptor. The conditions noted are these: 1.1 nM [3H]-ketanserin, HEK-293 EBNA membranes, 1 h at RT. Summed up: as §1

Test [3] concerns the target T3, human dopamine D2 receptor (Homo sapiens, UniProt P14416).
T3 construct: expressed in transfected cells; host or cells: HEK-293 EBNA cells, transient transfection; membrane preparation
The experiment in a line: Radioligand binding ([3H]-spiperone) to membranes of HEK-293 EBNA cells expressing human D2 receptor. The conditions noted are these: human D2, 0.7 nM [3H]-spiperone, HEK-293 EBNA membranes, 1 h at RT. The essentials: as §1

T3 sequence (P14416 whole entry): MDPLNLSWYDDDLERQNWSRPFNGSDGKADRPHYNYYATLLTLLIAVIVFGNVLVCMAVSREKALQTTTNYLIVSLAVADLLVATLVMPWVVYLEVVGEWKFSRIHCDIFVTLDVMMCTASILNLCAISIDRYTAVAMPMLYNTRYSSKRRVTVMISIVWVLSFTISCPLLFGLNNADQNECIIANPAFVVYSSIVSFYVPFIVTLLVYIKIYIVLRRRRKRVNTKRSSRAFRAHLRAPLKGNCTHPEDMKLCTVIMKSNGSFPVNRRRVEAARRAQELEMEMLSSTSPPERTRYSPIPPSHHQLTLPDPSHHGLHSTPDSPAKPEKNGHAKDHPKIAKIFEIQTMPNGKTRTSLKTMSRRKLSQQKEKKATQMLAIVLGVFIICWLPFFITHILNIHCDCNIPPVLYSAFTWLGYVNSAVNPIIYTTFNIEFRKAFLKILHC
T1 sequence (P35462 whole entry): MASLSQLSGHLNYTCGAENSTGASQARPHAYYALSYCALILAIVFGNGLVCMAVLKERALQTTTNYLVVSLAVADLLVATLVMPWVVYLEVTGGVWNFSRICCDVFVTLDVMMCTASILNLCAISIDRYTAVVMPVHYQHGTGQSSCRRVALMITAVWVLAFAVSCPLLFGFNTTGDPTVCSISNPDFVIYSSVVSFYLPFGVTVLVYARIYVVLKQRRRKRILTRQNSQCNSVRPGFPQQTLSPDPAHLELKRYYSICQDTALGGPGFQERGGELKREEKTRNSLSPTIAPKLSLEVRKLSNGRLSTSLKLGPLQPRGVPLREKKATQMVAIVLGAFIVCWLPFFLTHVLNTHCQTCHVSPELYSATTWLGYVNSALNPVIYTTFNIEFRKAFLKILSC

Regarding `Cc1cc2c(N3CCN(CC[C@H]4CC[C@H](NC(=O)C[C@H](O)C(F)(F)F)CC4)CC3)noc2cc1F` [Example 116, (S)-4,4,4-Trifluoro-N-trans-(4-{2-[4-(6-fluoro-5-methyl-benzo[d]isoxazol-3-yl)-piperazin-1-yl]-ethyl}-cyclohexyl)-3-hydroxy-butyramide], the results for the Ki in test [1], in test [2] and in test [3] were 20 nM, 33 nM and 3280 nM, respectively.
For `COCCC(=O)N[C@H]1CC[C@H](CCN2CCN(c3noc4ccc(C)cc34)CC2)CC1` [Example 104, 3-Methoxy-N-trans-(4-{2-[4-(5-methyl-benzo[d]isoxazol-3-yl)-piperazin-1-yl]-ethyl}-cyclohexyl)-propionamide], in that order: 2.59 nM, 20.9 nM and 554 nM.
For `CS(=O)(=O)CCC(=O)N[C@H]1CC[C@H](CCN2CCN(c3noc4cc(F)c(Cl)cc34)CC2)CC1` [Example 90, N-trans-(4-{2-[4-(5-Chloro-6-fluoro-benzo[d]isoxazol-3-yl)-piperazin-1-yl]-ethyl}-cyclohexyl)-3-methanesulfonyl-propionamide], in that order: 14.3 nM, 7.64 nM and 1190 nM.
In the case of `O=C(CC1CCOCC1)N[C@H]1CC[C@H](CCN2CCN(c3noc4ccc(F)cc34)CC2)CC1` [Example 8, N-trans-(4-{2-[4-(5-Fluoro-benzo[d]isoxazol-3-yl)-piperazin-1-yl]-ethyl}-cyclohexyl)-2-(tetrahydro-pyran-4-yl)-acetamide], the Ki – broadly, a dissociation constant, usually derived from enzyme kinetics or from competition with a known ligand – is 7.71 nM in test [1], 27.2 nM in test [2] and 1710 nM in test [3].
For `CC(C)OC1CCC(CC(=O)N[C@H]2CC[C@H](CCN3CCN(c4noc5ccc(F)cc45)CC3)CC2)CC1` (mixture of isomers) [Example 10, N-trans-(4-{2-[4-(5-Fluoro-benzo[d]isoxazol-3-yl)-piperazin-1-yl]-ethyl}-cyclohexyl)-2-(4-isopropoxy-cyclohexyl)-acetamide] the same measures were 6.6 nM, 10.4 nM and 11500 nM.
`O=C(CO)N[C@H]1CC[C@H](CCN2CCN(c3noc4cc(Cl)ccc34)CC2)CC1` [Example 42, N-trans-(4-{2-[4-(6-Chloro-benzo[d]isoxazol-3-yl)-piperazin-1-yl]-ethyl}-cyclohexyl)-2-hydroxy-acetamide]: the Ki in test [1] came to 11 nM; in test [2] it was 6.99 nM; in test [3], 809 nM.
As for `Cc1ccc2c(N3CCN(CC[C@H]4CC[C@H](NC(=O)CC5OCCCO5)CC4)CC3)noc2c1` [Example 101, 2-[1,3]Dioxan-2-yl-N-trans-(4-{2-[4-(6-methyl-benzo[d]isoxazol-3-yl)-piperazin-1-yl]-ethyl}-cyclohexyl)-acetamide], the inhibition constant Ki in test [1] was found to be 8.33 nM; in test [2] it was 5.15 nM; in test [3], 384 nM.
For `O=C(N[C@H]1CC[C@H](CCN2CCN(c3noc4cc(Cl)ccc34)CC2)CC1)C(O)C(F)(F)F` (mixture of isomers) [Example 33, N-trans-(4-{2-[4-(6-Chloro-benzo[d]isoxazol-3-yl)-piperazin-1-yl]-ethyl}-cyclohexyl)-rac-3,3,3-trifluoro-2-hydroxy-propionamide] the same measures were 14.8 nM, 12.4 nM and 362 nM.
`CC(=O)N[C@H]1CC[C@H](CCN2CCN(c3noc4cc(Cl)ccc34)CC2)CC1` [Example 30, N-trans-(4-{2-[4-(6-Chloro-benzo[d]isoxazol-3-yl)-piperazin-1-yl]-ethyl}-cyclohexyl)-acetamide]: the Ki in test [1] is 9.18 nM; in test [2], 8.65 nM; in test [3], 675 nM.
For `COCCC(=O)N[C@H]1CC[C@H](CCN2CCN(c3noc4cc(F)c(Cl)cc34)CC2)CC1` [Example 74, N-trans-(4-{2-[4-(5-Chloro-6-fluoro-benzo[d]isoxazol-3-yl)-piperazin-1-yl]-ethyl}-cyclohexyl)-3-methoxy-propionamide], in that order: 10.1 nM, 12.2 nM and 260 nM.
Consider `COC[C@H]1C[C@H](CC(=O)N[C@H]2CC[C@H](CCN3CCN(c4noc5ccc(F)cc45)CC3)CC2)C1` [Example 27, N-trans-(4-{2-[4-(5-Fluoro-benzo[d]isoxazol-3-yl)-piperazin-1-yl]-ethyl}-cyclohexyl)-2-trans-(3-methoxymethyl-cyclobutyl)-acetamide], for which the Ki in test [1] worked out at 10 nM; in test [2] it was 26.2 nM; in test [3], 718 nM.
For `Cc1cc2c(N3CCN(CC[C@H]4CC[C@H](NC(=O)CC5OCCCO5)CC4)CC3)noc2cc1F` [Example 111, 2-[1,3]Dioxan-2-yl-N-trans-(4-{2-[4-(6-fluoro-5-methyl-benzo[d]isoxazol-3-yl)-piperazin-1-yl]-ethyl}-cyclohexyl)-acetamide] the same measures were 10.6 nM, 7.66 nM and 4040 nM.
For `CCOCC(=O)N[C@H]1CC[C@H](CCN2CCN(c3noc4ccc(F)cc34)CC2)CC1` [Example 12, 2-Ethoxy-N-trans-(4-{2-[4-(5-fluoro-benzo[d]isoxazol-3-yl)-piperazin-1-yl]-ethyl}-cyclohexyl)-acetamide], in that order: 15.6 nM, 23.5 nM and 1390 nM.
For `O=C(CO)N[C@H]1CC[C@H](CCN2CCN(c3noc4cc(F)c(Cl)cc34)CC2)CC1` [Example 87, N-trans-(4-{2-[4-(5-Chloro-6-fluoro-benzo[d]isoxazol-3-yl)-piperazin-1-yl]-ethyl}-cyclohexyl)-2-hydroxy-acetamide], in that order: 9.97 nM, 8.6 nM and 401 nM.
As to `COC[C@H]1C[C@H](CC(=O)N[C@H]2CC[C@H](CCN3CCN(c4noc5cc(F)c(Cl)cc45)CC3)CC2)C1` [Example 80, N-trans-(4-{2-[4-(5-Chloro-6-fluoro-benzo[d]isoxazol-3-yl)-piperazin-1-yl]-ethyl}-cyclohexyl)-2-trans-(3-methoxymethyl-cyclobutyl)-acetamide], the Ki in test [1] amounted to 6.42 nM; in test [2], 2.98 nM; in test [3], 11700 nM.
Take `O=C(CC1C[C@@H]2CC[C@H]1O2)N[C@H]1CC[C@H](CCN2CCN(c3noc4ccc(F)cc34)CC2)CC1` (stereo in doubt) [Example 19, N-trans-(4-{2-[4-(5-Fluoro-benzo[d]isoxazol-3-yl)-piperazin-1-yl]-ethyl}-cyclohexyl)-2-(1R,4S)-7-oxa-bicyclo[2.2.1]hept-2-yl-acetamide]: the figures for the inhibition constant (Ki) in test [1], in test [2] and in test [3] were 36 nM, 20.6 nM and 1020 nM, respectively.
As for `CO[C@H]1CC[C@H](CC(=O)N[C@H]2CC[C@H](CCN3CCN(c4noc5cc(C)ccc45)CC3)CC2)CC1` [Example 100, 2-trans-(4-Methoxy-cyclohexyl)-N-trans-(4-{2-[4-(6-methyl-benzo[d]isoxazol-3-yl)-piperazin-1-yl]-ethyl}-cyclohexyl)-acetamide], the inhibitory constant (Ki) in test [1] was 17.7 nM; in test [2], 5.3 nM; in test [3], 494 nM.
